In patent US6465476B1, “Immuno-modulator exhibiting antimicrobial and anti-mycrobacterial activities, method for producing the same and pharmaceutical preparation” (priority 1997, dated 2002):

System: Kyp-4 strain of leprosy mycobacteria
Assay: Antileprous activity in mice infected by Shepard's procedure
Type: in vivo, leprosy mycobacteria; male mice of the CBA line
From the text: Antileprous activity of isophonum as compared with that of diuciphonum was studied on male mice of the CBA line infected with the laboratory Kyp-4 strain of leprosy mycobacteria taken in an amount of 5000 and introduced intraplantedly by Shepard's procedure. The experiment lasted six months from the 7th of February to the […] 1996. Observed were 5 groups of mice with 15 mice in each group. All the animals were kept under the same conditions of the vivarium on a standard diat.
The first group (controls): during six months of the experiment the mice received 0.5 ml of a starch suspension through a probe five times a week. After six months the animals were killed through a cervical dislocation of backbone, the organs were subjected to a bacterioscopic investigation, no pathologic deviations characteristic of any of the groups were found. The bacteriscopic investigation of the infected site was carried out by grinding the mouse foot in 2 ml of 0.1 percent solution of albumin, making a smear from 0.01 ml of the suspenstion and painting it by Ziel-Nielson's procedure and counting the number of leprosy micobacteria in 60 fields of vision to determine the number of micobacteria per mouse in each group.

Cc1[nH]c(=O)[nH]c(=O)c1S(=O)(=O)NNC(=O)c1ccncc1.O [Isophonum, N-(6-methyl-2,4-dioxo-1,2,3,4-tetrahydro-5-pyrimidinsulfon)-N′-isonicotinoylhydrazide hydrate]
activity against the leprosy mycobacteria (2.5 mg/kg): bactericide activity
Percentage of infected animals (after six months, isophonum dose 2.5 mg/kg): 0%
